# Experiments:
# bedstraw = assay: Test B pre/postemergence bedstraw; format: in vivo, Galium aparine
# Outline: (§1)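 Response is a visual 0-to-10 score relative to untreated plants, where 0 means no effect and 10 means complete control, taken twelve to sixteen days after application. Treatments went onto soil at planting and onto foliage of 1- to 4-leaf plants, using a surfactant-containing non-phytotoxic solvent.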
# blackgrass = assay: Test B pre/postemergence blackgrass; format: in vivo, Alopecurus myosuroides
# Outline: as §1
# surinam grass = assay: Test B pre/postemergence surinam grass; format: in vivo, Brachiaria decumbens
# Outline: as §1
# cocklebur = assay: Test B pre/postemergence cocklebur; format: in vivo, Xanthium strumarium
# Outline: as §1
# corn = assay: Test B pre/postemergence corn; format: in vivo, Zea mays
# Outline: as §1
# crabgrass = assay: Test B pre/postemergence crabgrass; format: in vivo, Digitaria sanguinalis
# Outline: as §1
# giant foxtail = assay: Test B pre/postemergence giant foxtail; format: in vivo, Setaria faberii
# Outline: as §1
# morningglory = assay: Test B pre/postemergence morningglory; format: in vivo, Ipomoea hederacea
# Outline: as §1
# pigweed = assay: Test B pre/postemergence pigweed; format: in vivo, Amaranthus retroflexus
# Outline: as §1
# rape = assay: Test B pre/postemergence rape; format: in vivo, Brassica napus
# Outline: as §1
# soybean = assay: Test B pre/postemergence soybean; format: in vivo, Glycine max
# Outline: as §1
# sugar beet = assay: Test B pre/postemergence sugar beet; format: in vivo, Beta vulgaris
# Outline: as §1
# velvetleaf = assay: Test B pre/postemergence velvetleaf; format: in vivo, Abutilon theophrasti
# Outline: as §1
# wheat = assay: Test B pre/postemergence wheat; format: in vivo, Triticum aestivum
# Outline: as §1
# wild oat = assay: Test B pre/postemergence wild oat; format: in vivo, Avena fatua
# Outline: as §1
# purple nutsedge = assay: Test B pre/postemergence purple nutsedge; format: in vivo, Cyperus rotundus
# Outline: as §1
# [1] = Postemergence, Rate 125 g/ha, scale of 0 to 10 where 0 is no effect and 10 is complete control
# [2] = Preemergence, Rate 125 g/ha, scale of 0 to 10 where 0 is no effect and 10 is complete control
# [3] = Preemergence, Rate 250 g/ha, scale 0 (no effect) to 10 (complete control)
# [4] = Rate 62 g/ha, Preemergence, scale 0 to 10
# [5] = Rate 250 g/ha, Postemergence, scale 0 to 10, 0 is no effect, 10 is complete control
# [6] = Rate 500 g/ha, Postemergence, scale 0 to 10, 0 is no effect, 10 is complete control
# [7] = Rate 500 g/ha, Preemergence, scale 0 to 10 (0 no effect, 10 complete control)
# [8] = Postemergence, Rate 62 g/ha, scale 0 to 10, 0 is no effect, 10 is complete control
smiles,measurement,setting,value
CC(C)N(C(=O)n1oc(=O)n(CCN(C)C(=O)c2ccccc2)c1=O)c1ccccc1 [Compound 761],Bedstraw plant response rating,bedstraw; [1],0
same,"Plant response rating, Bedstraw",bedstraw; [2],0
same,Bedstraw plant response rating,bedstraw; [3],0
same,Bedstraw plant response rating,bedstraw; [4],0
same,Bedstraw plant response rating,bedstraw; [5],0
same,Bedstraw plant response rating,bedstraw; [6],3
same,Bedstraw plant response rating,bedstraw; [7],0
same,"Plant response rating, Blackgrass",blackgrass; [8],0
same,Blackgrass plant response rating,blackgrass; [1],0
same,"Plant response rating, Blackgrass",blackgrass; [2],0
same,Blackgrass plant response rating,blackgrass; [3],0
same,Blackgrass plant response rating,blackgrass; [4],0
same,Blackgrass plant response rating,blackgrass; [5],0
same,Blackgrass plant response rating,blackgrass; [6],0
same,Blackgrass plant response rating,blackgrass; [7],0
same,"Plant response rating, B. signalgrass",surinam grass; [8],0
same,B. signalgrass plant response rating,surinam grass; [1],0
same,B. signalgrass plant response rating,"surinam grass; Preemergence, Rate 62 g/ha, scale of 0 to 10 where 0 is no effect and 10 is complete control",0
same,"Plant response rating, B. signalgrass",surinam grass; [2],0
same,B. signalgrass plant response rating,surinam grass; [3],0
same,B. signalgrass plant response rating,surinam grass; [5],3
same,B. signalgrass plant response rating,surinam grass; [6],3
same,B. signalgrass plant response rating,surinam grass; [7],3
same,"Plant response rating, Cocklebur",cocklebur; [8],0
same,Cocklebur plant response rating,cocklebur; [1],0
same,"Plant response rating, Cocklebur",cocklebur; [2],0
same,Cocklebur plant response rating,cocklebur; [3],0
same,Cocklebur plant response rating,cocklebur; [4],0
same,Cocklebur plant response rating,cocklebur; [5],0
same,Cocklebur plant response rating,cocklebur; [6],0
same,Cocklebur plant response rating,cocklebur; [7],0
same,"Plant response rating, Corn",corn; [8],0
same,Corn plant response rating,corn; [1],0
same,"Plant response rating, Corn",corn; [2],0
same,Corn plant response rating,corn; [3],0
same,Corn plant response rating,corn; [4],0
same,Corn plant response rating,corn; [5],0
same,Corn plant response rating,corn; [6],0
same,Corn plant response rating,corn; [7],0
same,"Plant response rating, Crabgrass",crabgrass; [2],3
same,Crabgrass plant response rating,crabgrass; [3],5
same,Crabgrass plant response rating,crabgrass; [4],3
same,Crabgrass plant response rating,crabgrass; [5],0
same,Crabgrass plant response rating,crabgrass; [6],0
same,Crabgrass plant response rating,crabgrass; [7],3
same,"Plant response rating, Giant foxtail",giant foxtail; [8],0
same,Giant foxtail plant response rating,giant foxtail; [1],0
same,"Plant response rating, Giant foxtail",giant foxtail; [2],0
same,Giant foxtail plant response rating,giant foxtail; [3],8
same,Giant foxtail plant response rating,giant foxtail; [4],0
same,Giant foxtail plant response rating,giant foxtail; [6],3
same,Giant foxtail plant response rating,giant foxtail; [7],9
same,"Plant response rating, Morningglory",morningglory; [8],0
same,Morningglory plant response rating,morningglory; [1],6
same,"Plant response rating, Morningglory",morningglory; [2],0
same,Morningglory plant response rating,morningglory; [3],0
same,Morningglory plant response rating,morningglory; [4],0
same,Morningglory plant response rating,morningglory; [5],7
same,Morningglory plant response rating,morningglory; [7],0
same,"Plant response rating, Redroot pigweed",pigweed; [8],0
same,"Plant response rating, Redroot pigweed",pigweed; [2],0
same,Redroot pigweed plant response rating,pigweed; [3],0
same,Redroot pigweed plant response rating,pigweed; [4],0
same,Redroot pigweed plant response rating,pigweed; [5],6
same,Redroot pigweed plant response rating,pigweed; [6],6
same,Redroot pigweed plant response rating,pigweed; [7],0
same,"Plant response rating, Rape",rape; [8],0
same,Rape plant response rating,rape; [1],0
same,"Plant response rating, Rape",rape; [2],0
same,Rape plant response rating,rape; [3],0
same,Rape plant response rating,rape; [4],0
same,Rape plant response rating,rape; [5],0
same,Rape plant response rating,rape; [6],0
same,Rape plant response rating,rape; [7],0
same,"Plant response rating, Soybean",soybean; [8],2
same,"Plant response rating, Soybean",soybean; [2],0
same,Soybean plant response rating,soybean; [3],0
same,Soybean plant response rating,soybean; [4],0
same,Soybean plant response rating,soybean; [5],3
same,Soybean plant response rating,soybean; [6],3
same,Soybean plant response rating,soybean; [7],0
same,"Plant response rating, Sugarbeets",sugar beet; [8],2
same,"Plant response rating, Sugarbeets",sugar beet; [2],0
same,Sugarbeets plant response rating,sugar beet; [3],0
same,Sugarbeets plant response rating,sugar beet; [4],0
same,Sugarbeets plant response rating,sugar beet; [5],3
same,Sugarbeets plant response rating,sugar beet; [6],6
same,Sugarbeets plant response rating,sugar beet; [7],0
same,"Plant response rating, Velvetleaf",velvetleaf; [8],0
same,"Plant response rating, Velvetleaf",velvetleaf; [2],0
same,Velvetleaf plant response rating,velvetleaf; [3],0
same,Velvetleaf plant response rating,velvetleaf; [4],0
same,Velvetleaf plant response rating,velvetleaf; [5],0
same,Velvetleaf plant response rating,velvetleaf; [6],0
same,Velvetleaf plant response rating,velvetleaf; [7],0
same,"Plant response rating, Wheat",wheat; [8],0
same,"Plant response rating, Wheat",wheat; [2],0
same,Wheat plant response rating,wheat; [3],0
same,Wheat plant response rating,wheat; [4],0
same,Wheat plant response rating,wheat; [5],0
same,Wheat plant response rating,wheat; [6],0
same,Wheat plant response rating,wheat; [7],0
same,"Plant response rating, Wild oats",wild oat; [8],0
same,"Plant response rating, Wild oats",wild oat; [2],0
same,Wild oats plant response rating,wild oat; [3],0
same,Wild oats plant response rating,wild oat; [4],0
same,Wild oats plant response rating,wild oat; [5],0
same,Wild oats plant response rating,wild oat; [6],0
same,Wild oats plant response rating,wild oat; [7],0
same,"Plant response rating, Nutsedge",purple nutsedge; [8],0
same,Nutsedge plant response rating,purple nutsedge; [1],0
same,"Plant response rating, Nutsedge",purple nutsedge; [2],0
same,Nutsedge plant response rating,purple nutsedge; [3],0
same,Nutsedge plant response rating,purple nutsedge; [4],0
same,Nutsedge plant response rating,purple nutsedge; [5],0
same,Nutsedge plant response rating,purple nutsedge; [6],0
same,Nutsedge plant response rating,purple nutsedge; [7],0
